Reference: a melting point compilation (Tetko et al.)

| melting point [°C] | Compound |
| --- | --- |
| 130 to 132 | NNC(=O)c1cccc2ncccc12 |
| 118 to 120 | CC(NC(=O)c1ccccc1NC(=O)CCl)c1ccccc1 (stereo not given) |
| 98 to 100 | COc1ccc(C(=O)NCC(=O)O)cc1[N+](=O)[O-] |
| 30 to 32 | Cc1nc(Cl)c2c(n1)CCCC2 |
| 213 to 215 | O=C1NC(=O)C(c2cccc(O)c2)N1 (stereo not given) |
| 97 to 99 | CCOc1ccc(C#N)cn1 |
| 183 to 195 | COc1ccc2cc(/C=C/C(=O)O)ccc2c1 |
| 46 to 48 | CC1(C)CNCCS1(=O)=O |
| 111 to 113 | O=C(O)c1cc(S(=O)(=O)Cl)cc(F)c1F |
| 109 to 111 | O=C(CCCl)Nc1ccc(F)cc1 |
| 95 to 99 | CCCCNC(=O)CC(N)=NO |
| 97 to 99 | CS(=O)(=O)c1c(N)cccc1Cl |
| 208 to 210 | Cc1cc(-c2ccccc2)nc(S)n1 |
| 121 to 123 | O=S1(=O)N=C(Cl)c2ccccc21 |
| 81 to 83 | COc1cccc(NCCC#N)c1 |
| 115 to 117 | COC(=O)C(=O)NN |
| 35 to 37 | C#CC#CCCCCCC(=O)O |
| 176 to 178 | O=S1(=O)N=C2CCCCCN2C(c2ccncc2)N1 (stereo not given) |
| 249 to 251 | CN1CCC(=O)Nc2cc(C(=O)O)ccc21 |
| 121 to 123 | COc1ccc(C)cc1NC(=O)CNC(=O)CCl |
| 137 to 139 | CNC(=O)c1cc(Cl)ccc1[N+](=O)[O-] |
| 198 to 200 | Cc1c(N)cccc1NC(=O)c1ccccc1I |
| 136 to 138 | Nc1ccccc1-n1ccc(C(=O)O)n1 |
| 36 to 38 | N#Cc1cccnc1N1CCCC1 |

| melting point [°C] | Compound |
| --- | --- |
| 95 to 97 | O=C(O)c1cc(Cl)ccc1OC1CCCC1 |
| 97 to 99 | Nc1ncc(Cc2ccccc2Cl)s1 |
| 74 to 76 | C#CCn1nc(C)c(C)c1C |
| 39 to 41 | OC1(c2ccccc2)CCC1 |
| 213 to 218 | O=C(CCl)NCc1ccc(-c2ccc(Cl)cc2)o1 |
| 225 to 227 | Cc1ccc(-c2n[nH]c(S)nc2=O)cc1 |
| 109 to 111 | C=CCNc1ncc(C(=O)OC)s1 |
| 123 to 127 | O=C(O)CCNS(=O)(=O)c1ccc(F)cc1 |
| 50 to 52 | NC1CCN(C2CCOCC2)C1=O (stereo not given) |
| 149 to 151 | CC1C=CC2C(=O)N(C(C)C)C(=O)C2C1C(=O)O (stereo not given) |
| 60 to 62 | CCOCCNC(N)=O |
| 201 to 203 | Cc1cc(C(=O)O)c2c(C3CC3)noc2n1 |
| 218 to 220 | Cc1ccc(-n2cnnc2SCC(=O)O)cc1 |
| 232 to 234 | c1ccc2[nH]c(C3CC3)nc2c1 |
| 53 to 55 | CCNC(=O)NCCCO |
| 144 to 146 | CC(C)(C(=O)NO)c1ccccc1 |
| 126 to 128 | Nc1nc(Cl)c(Cl)cc1[N+](=O)[O-] |
| 139 to 141 | COC(=O)c1cc(SC(=O)N(C)C)c(OC)cc1[N+](=O)[O-] |
| 201 to 203 | COc1ccc(N2CC(C(=O)O)CC2=O)cc1OC (stereo not given) |
| 179 to 181 | CC(C)(C)CC(=O)Nc1ccc(CC(=O)O)cc1 |
| 55 to 57 | O=C(O)CCNC(=O)c1cnccn1 |
| 83 to 85 | N#Cc1ccc(Cl)nn1 |
| 104 to 106 | Cc1cc(-n2nc(C)cc2N)nc(C)n1 |
| 212 to 214 | O=C(Cc1ccc(Br)cc1)Nc1ccccc1C(=O)O |

| melting point [°C] | Compound |
| --- | --- |
| 179 to 181 | NC(=S)c1ccc(NC(=O)C2CC2)cc1 |
| 90 to 92 | O=C(CCl)NCCc1nc2ccccc2s1 |
| 230 to 232 | CS(=O)(=O)N1CCc2cc(C(=O)O)ccc21 |
| 164 to 166 | ClCc1ccc(-c2nc3cc(Cl)ccc3s2)cc1 |
| 169 to 171 | CC(C)(C)C(N)c1nc(-c2nnc[nH]2)no1 (stereo not given) |
| 80 to 82 | O=C(CCl)NCC#Cc1cccc(C(F)(F)F)c1 |
| 175 to 177 | O=C(NC1CCNCC1)c1ccc(F)cc1 |
| 167 to 169 | CC(=O)Cn1c(CCl)nc2ccccc2c1=O |
| 40 to 42 | CCCCCc1cc(N)on1 |
| 203 to 205 | O=C(O)c1ccc(F)c(S(=O)(=O)N2CCCCC2)c1 |
| 137 to 139 | Nc1cccc(-c2nnnn2C2CC2)c1 |
| 199 to 201 | Nc1cc(S(N)(=O)=O)ccc1O |
| 66 to 68 | CCc1ccc(CC)c(-c2csc(N)n2)c1 |
| 182 to 184 | Cc1nn(C)c(C)c1C(=O)C(N)=O |
| 222 to 224 | CCOc1ccc(-c2cc(C(=O)O)c3c(C)noc3n2)cc1 |
| 214 to 216 | Nc1ccc(C(=O)O)nc1Cl |
| 188 to 190 | O=C(CCl)N1CCc2[nH]c3ccccc3c2C1 |
| 81 to 83 | Cc1ccccc1C(N)=NO |
| 34 to 36 | O=S(CCCl)c1ccccc1 (stereo not given) |
| 65 to 70 | COC(=O)c1ccc(S(=O)(=O)Cl)cc1 |
| 135 to 137 | COc1ccc(-c2nn(-c3ccccc3)cc2C=O)cc1 |
| 151 to 153 | Cc1ccc(N2C(=O)C=CC2=O)cc1 |
| 174 to 176 | CCOC(=O)c1ccc(N2C(=O)Cc3ccccc3C2=O)cc1 |
| 176 to 178 | Nc1cccc(-n2ccnc2S)c1 |

| melting point [°C] | Compound |
| --- | --- |
| 82 to 84 | Cc1cc(C(=O)CCl)c(C)n1-c1ccc(Br)cc1 |
| 92 to 94 | Cc1nn(-c2ccccc2)c(Oc2ccccc2)c1C=O |
| 133 to 135 | NNC(=O)c1ccc2ccccc2n1 |
| 174 to 176 | NS(=O)(=O)c1c(Br)cc(F)cc1Br |
| 264 to 266 | CC(=O)c1ccc2[nH]c(=O)[nH]c2c1 |
| 106 to 108 | O=C(O)COc1ccc(Br)cc1F |
| 163 to 165 | O=C(NCCO)c1ccc(O)cc1O |
| 139 to 141 | O=C1NCCN1CCN1CCNCC1 |
| 82 to 83 | Cc1n[nH]c(C)c1S(=O)(=O)N1CCOCC1 |
| 219 to 221 | NC(CC(=O)O)c1ccc(C(F)(F)F)cc1 (stereo not given) |
| 152 to 154 | CC(C)Oc1ccc(C(N)=S)cc1 |
| 227 to 229 | CCn1c(S)nc2cc(S(=O)(=O)N3CCOCC3)ccc21 |
| 56 to 58 | OC1(Cc2ccccc2)CCCC1 |
| 62 to 64 | Nc1ccc(Oc2ccccn2)cc1 |
| 126 to 128 | O=Cc1ccc(-c2ccc(Cl)c(Cl)c2)s1 |
| 101 to 103 | COc1ccc(-c2noc(CCl)n2)cc1OC |
| 312 to 314 | COc1ccc(-n2c(S)nc3sc4c(c3c2=O)CCCC4)cc1 |
| 161 to 163 | O=C(CCl)NC(=O)Nc1ccccc1 |
| 129 to 133 | CCOc1ccc(S(=O)(=O)N(C)c2ccc(O)cc2)cc1 |
| 101 to 103 | CN(CC(=O)O)C(=O)c1cccs1 |
| 194 to 196 | NNc1ccc(-n2cccn2)nn1 |
| 153 to 155 | O=C(O)c1c(F)cccc1Br |
| 90 to 94 | N#CCC(=O)NCC1CCCO1 (stereo not given) |
| 232 to 234 | O=C(O)C1CCN(S(=O)(=O)c2cccc3c2N=S=N3)CC1 |

| melting point [°C] | Compound |
| --- | --- |
| 43 to 45 | CCS(=O)(=O)c1cc(F)ccc1N |
| 175 to 177 | O=C(c1cc(Cl)nc2ccccc12)N1CCOCC1 |
| 203 to 205 | O=C(O)c1occc1CN1C(=O)Cc2ccccc21 |
| 197 to 199 | COc1cc(C(=O)O)cc(Br)c1O |
| 123 to 125 | CC(C)(C(=O)O)c1ccc(Br)cc1 |
| 180 to 184 | O=C(O)Cc1cn2ccsc2n1 |
| 122 to 124 | CN1C(=O)CCC(CO)C1c1cccc(Cl)c1 (stereo not given) |
| 71 to 73 | Fc1ccc2c(Cl)ccnc2c1 |
| 89 to 91 | O=C1CCOc2cc(Br)ccc21 |
| 109 to 111 | O=C1C=CC(=O)N1CCc1ccccc1 |
| 42 to 44 | O=CC1=C(Sc2ccccc2)CCCC1 |
| 189 to 191 | O=C(O)C(=Cc1cccnc1)NC(=O)c1ccccc1 |
| 133 to 135 | CCOc1ccc(S(N)(=O)=O)cn1 |
| 41 to 43 | COc1ccc(Cl)c(S(=O)(=O)Cl)c1 |
| 89 to 91 | COc1cccc(CNC(=O)C(C)Cl)c1 (stereo not given) |
| 97 to 99 | OC(c1ccccc1)c1nc(-c2ccccc2)no1 (stereo not given) |
| 199 to 201 | N#Cc1cccc(C(=O)NNC(=O)CCl)c1 |
| 45 to 47 | O=S(=O)(Cl)Cc1cc(Cl)ccc1F |
| 68 to 70 | CCOC(=O)C(=O)CC(=O)c1ccc(Cl)cc1Cl |
| 115 to 117 | O=S1(=O)CCCN1c1ccccc1Br |
| 83 to 85 | CC(C(=O)OCc1ccccc1)S(N)(=O)=O (stereo not given) |
| 168 to 170 | N#Cc1ccccc1-c1ccccc1C(=O)O |
| 183 to 185 | COc1ccc(N2CC(C(=O)O)CC2=O)c(OC)c1 (stereo not given) |
| 221 to 223 | Cc1cc2n(n1)CCC(=O)N2 |

| melting point [°C] | Compound |
| --- | --- |
| 113 to 115 | CCCCc1ccc(C(=O)CCC(=O)O)cc1 |
| 59 to 61 | Nc1ccc2c(c1)N(CCO)CC2 |
| 97 to 99 | CC(=O)NCCc1cc(C(=O)CCl)ccc1F |
| 193 to 195 | CCc1ncsc1C(=O)O |
| 218 to 220 | Oc1ccccc1-n1ccnc1 |
| 143 to 145 | CN1CCC(=O)Nc2cc(F)ccc21 |
| 215 to 219 | NNC(=O)c1cc(Br)c[nH]1 |
| 109 to 111 | Nc1ccc(-n2ccnc2)cc1C(F)(F)F |
| 199 to 201 | O=C(O)c1cccc(NS(=O)(=O)c2ccccc2)c1 |
| 202 to 204 | Nc1nc2c(Br)cc(OC(F)(F)F)cc2s1 |
| 171 to 173 | O=C(Nc1cccc(O)c1)c1ccccc1 |
| 54 to 58 | O=[N+]([O-])c1cnc(Cl)c(Br)c1 |
| 118 to 120 | CC(C)(C)OC(=O)NC1CCCN(Cc2ccccc2)C1 (stereo not given) |
| 53 to 55 | CCOP(=O)(Cc1cc(Cl)ccc1Cl)OCC |
| 141 to 143 | NCc1ccc(-c2ccn[nH]2)cc1 |
| 64 to 66 | C#CCNC(=O)CC(=O)O |
| 90 to 92 | O=Cc1coc(-c2ccccc2)n1 |
| 99 to 101 | C#Cc1cnc2ccccc2n1 |
| 103 to 105 | CC(C)(C)OC(=O)N1CCC(Oc2ccccc2)(C(=O)O)CC1 |
| 78 to 80 | CNC(=O)CNc1cccc(OC)c1 |
| 119 to 122 | CCOc1ccc(C(=O)NCC(=O)O)cc1OCC |
| 151 to 153 | O=C(O)c1cc(COc2ccc(Cl)cc2Cl)on1 |
| 104 to 106 | Cc1cc(N)n(CCC#N)n1 |

| Compound | melting point [°C] |
| --- | --- |
| CC(C)N1C(=O)NC2(CCNC2)C1=O (stereo not given) | 98 to 100 |
| Cc1ccccc1NC(=O)CCl | 75 to 77 |
